Values of other authors, collected in publication PMC8178945 (Computational and Structural Biotechnology Journal, 2021).
pKd: −log10 of the molar value.

Target: 3CL^Pro
Settings: read-out: KD from isothermal titration calorimetry; previously obtained

## O=c1cc(-c2ccccc2)oc2cc(O)c(O)c(O)c12 [baicalein]
  pKd: 5.39
